The values below come from PubChem BioAssay AID1259407 (Chemical Carcinogenesis Research Information System (CCRIS), 2018).

Molecules are shown by their SMILES. Active and inactive are the calls of the source. No rule for the calls is given here.

The data set relates to CCRIS mutagenicity, Ames/micronucleus/aberration tests. Kind of data set: CCRIS mutagenicity studies.
The mark [1] stands for this setting: Test System: AMES SALMONELLA TYPHIMURIUM, Strain/Indicator: TA97, Metabolic Activation: HAMSTER, LIVER, S-9, AROCLOR 1254 (10%), Method: PREINCUBATION
The mark [2] stands for this setting: Test System: AMES SALMONELLA TYPHIMURIUM, Strain/Indicator: TA97, Metabolic Activation: RAT, LIVER, S-9, AROCLOR 1254 (10%), Method: PREINCUBATION
Where [3] appears, read: Test System: AMES SALMONELLA TYPHIMURIUM, Strain/Indicator: TA98, Metabolic Activation: HAMSTER, LIVER, S-9, AROCLOR 1254 (10%), Method: PREINCUBATION
Where [4] appears, read: Test System: AMES SALMONELLA TYPHIMURIUM, Strain/Indicator: TA98, Metabolic Activation: NONE, Method: PREINCUBATION
[5] abbreviates: Test System: AMES SALMONELLA TYPHIMURIUM, Strain/Indicator: TA98, Metabolic Activation: RAT, LIVER, S-9, AROCLOR 1254 (10%), Method: PREINCUBATION
Setting [6] is: Test System: AMES SALMONELLA TYPHIMURIUM, Strain/Indicator: TA100, Metabolic Activation: HAMSTER, LIVER, S-9, AROCLOR 1254 (10%), Method: PREINCUBATION
The mark [7] stands for this setting: Test System: AMES SALMONELLA TYPHIMURIUM, Strain/Indicator: TA100, Metabolic Activation: RAT, LIVER, S-9, AROCLOR 1254 (10%), Method: PREINCUBATION
The mark [8] stands for this setting: Test System: AMES SALMONELLA TYPHIMURIUM, Strain/Indicator: TA1535, Metabolic Activation: HAMSTER, LIVER, S-9, AROCLOR 1254 (10%), Method: PREINCUBATION
Where [9] appears, read: Test System: AMES SALMONELLA TYPHIMURIUM, Strain/Indicator: TA1535, Metabolic Activation: NONE, Method: PREINCUBATION
The mark [10] stands for this setting: Test System: AMES SALMONELLA TYPHIMURIUM, Strain/Indicator: TA1535, Metabolic Activation: RAT, LIVER, S-9, AROCLOR 1254 (10%), Method: PREINCUBATION

As to `CN(C)c1ccc(N(C)C)cc1`, the mutagenic call (End Point: IN VITRO CHROMOSOMAL ABERRATIONS, Test System: CHINESE HAMSTER LUNG CELLS (CHL), Metabolic Activation: NONE) was “active; positive (structural changes)”; the mutagenic call (End Point: IN VITRO CHROMOSOMAL ABERRATIONS, Test System: CHINESE HAMSTER LUNG CELLS (CHL), Metabolic Activation: RAT, LIVER, S-9, KC-400) was “active; positive (structural changes)”; the mutagenic call (End Point: IN VITRO CHROMOSOMAL ABERRATIONS, Test System: CHINESE HAMSTER OVARY CELLS (CHO), Metabolic Activation: NONE) is “active; positive at highest dose”; the mutagenic call (End Point: IN VITRO CHROMOSOMAL ABERRATIONS, Test System: CHINESE HAMSTER OVARY CELLS (CHO), Metabolic Activation: RAT, LIVER, S-9, AROCLOR 1254) was “active; positive (structural changes)”; the mutagenic call under setting [1] is “active; positive”; the mutagenic call under setting [2] was “active; positive”. For the same compound, the mutagenic call was “inactive; negative” (Test System: AMES SALMONELLA TYPHIMURIUM, Strain/Indicator: TA97, Metabolic Activation: RAT, LIVER, S-9, AROCLOR 1254 (30%), Method: PREINCUBATION); “inactive; negative” under setting [3]; “active; positive” (Test System: AMES SALMONELLA TYPHIMURIUM, Strain/Indicator: TA98, Metabolic Activation: HAMSTER, LIVER, S-9, AROCLOR 1254 (30%), Method: PREINCUBATION); “inactive; negative” under setting [4]; “inactive; negative” under setting [5]; “inactive; negative” (Test System: AMES SALMONELLA TYPHIMURIUM, Strain/Indicator: TA98, Metabolic Activation: RAT, LIVER, S-9, AROCLOR 1254 (30%), Method: PREINCUBATION). Moreover, the mutagenic call is “active; positive” under setting [6]; “active; positive” (Test System: AMES SALMONELLA TYPHIMURIUM, Strain/Indicator: TA100, Metabolic Activation: HAMSTER, LIVER, S-9, AROCLOR 1254 (30%), Method: PREINCUBATION); “active; positive” under setting [7]; “active; positive” (Test System: AMES SALMONELLA TYPHIMURIUM, Strain/Indicator: TA100, Metabolic Activation: RAT, LIVER, S-9, AROCLOR 1254 (30%), Method: PREINCUBATION); “inactive; negative” under setting [8]; “inactive; negative” (Test System: AMES SALMONELLA TYPHIMURIUM, Strain/Indicator: TA1535, Metabolic Activation: HAMSTER, LIVER, S-9, AROCLOR 1254 (30%), Method: PREINCUBATION). Further, the mutagenic call under setting [9] is “inactive; negative”; the mutagenic call under setting [10] was “inactive; negative”; the mutagenic call (Test System: AMES SALMONELLA TYPHIMURIUM, Strain/Indicator: TA1535, Metabolic Activation: RAT, LIVER, S-9, AROCLOR 1254 (30%), Method: PREINCUBATION) is “inactive; negative”.
Consider `COC(=O)C(N)Cc1ccc(Cl)cc1` (stereo not given), for which the mutagenic call runs as follows: (Test System: AMES SALMONELLA TYPHIMURIUM, Strain/Indicator: TA98, Metabolic Activation: NONE) “inactive; negative”; (Test System: AMES SALMONELLA TYPHIMURIUM, Strain/Indicator: TA100, Metabolic Activation: NONE) “inactive; negative”; (Test System: AMES SALMONELLA TYPHIMURIUM, Strain/Indicator: TA1535, Metabolic Activation: NONE) “inactive; negative”; (Test System: AMES SALMONELLA TYPHIMURIUM, Strain/Indicator: TA1537, Metabolic Activation: NONE) “inactive; negative”; (Test System: E. COLI, Strain/Indicator: AB2462 UVRA, Metabolic Activation: NONE, Method: SPOT TEST) “inactive; negative”; (Test System: E. COLI, Strain/Indicator: WP6 POLA, Metabolic Activation: NONE, Method: SPOT TEST) “inactive; negative”.
As for `COc1cc(O)c2c(=O)c3cc(O)ccc3oc2c1`, the mutagenic call reads like this: (Test System: AMES SALMONELLA TYPHIMURIUM, Strain/Indicator: TA97, Metabolic Activation: RAT, LIVER, S-9, PHENOBARBITAL AND 5,6-BENZOFLAVONE, Method: PREINCUBATION) “active; positive”; (Test System: AMES SALMONELLA TYPHIMURIUM, Strain/Indicator: TA98, Metabolic Activation: RAT, LIVER, S-9, PHENOBARBITAL AND 5,6-BENZOFLAVONE, Method: PREINCUBATION) “inactive; negative”; (Test System: AMES SALMONELLA TYPHIMURIUM, Strain/Indicator: TA100, Metabolic Activation: RAT, LIVER, S-9, PHENOBARBITAL AND 5,6-BENZOFLAVONE, Method: PREINCUBATION) “inactive; negative”; (Test System: AMES SALMONELLA TYPHIMURIUM, Strain/Indicator: TA2637, Metabolic Activation: RAT, LIVER, S-9, 5,6-BENZOFLAVONE AND/OR SODIUM PHENOBARBITAL, Method: PREINCUBATION) “active; positive”; (Test System: AMES SALMONELLA TYPHIMURIUM, Strain/Indicator: TA2637, Metabolic Activation: RAT, LIVER, S-9, PHENOBARBITAL AND 5,6-BENZOFLAVONE, Method: PREINCUBATION) “active; positive”; (Test System: AMES SALMONELLA TYPHIMURIUM, Strain/Indicator: TA2637, Metabolic Activation: RAT, LIVER, S-105, 5,6-BENZOFLAVONE AND/OR SODIUM PHENOBARBITAL, Method: PREINCUBATION) “inactive; negative”.
For `Nc1cc(Cl)c([N+](=O)[O-])cc1O`, the mutagenic call is, setting by setting: under setting [1], “active; positive”; (Test System: AMES SALMONELLA TYPHIMURIUM, Strain/Indicator: TA97, Metabolic Activation: NONE, Method: PREINCUBATION) “active; positive”; under setting [2], “active; positive”; under setting [3], “active; positive”; under setting [4], “active; positive”; under setting [5], “active; positive”. Further, the mutagenic call under setting [6] was “active; positive”; the mutagenic call (Test System: AMES SALMONELLA TYPHIMURIUM, Strain/Indicator: TA100, Metabolic Activation: NONE, Method: PREINCUBATION) was “inactive; negative”; the mutagenic call under setting [7] is “inactive; negative”; the mutagenic call under setting [8] was “inactive; negative”; the mutagenic call under setting [9] is “inactive; negative”; the mutagenic call under setting [10] was “inactive; negative”.
